Experiment [1] concerns Trypanosoma brucei Lister 427 VSG221 with APOL1 G1 recombinant protein. In words: APOL1 G1 trypanosome cell rescue assay (Example B5). Format: cell-based. The note with it: Trypanosoma brucei, 20 h, read-out: APOL1 G1 Trypanosome Rescue EC50, Trypanosoma brucei Lister 427 VSG221 with APOL1 G1 recombinant protein, 20 hours, CellTiter-Glo; geometric mean of at least 2 assay runs; † = single assay run. The method, boiled down: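 Recombinant APOL1 protein, dispensed from a 2 μg/mL stock, and 250 T. brucei per well were co-incubated with test compound (0.4% DMSO) for 20 h. Viability: CellTiter-Glo luminescence.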

The subject of experiment [2] is HEK293 clonal cell line overexpressing APOL1 G1. Briefly: APOL1 G1 HEK293 cell rescue assay (Example B3). The class given is cell-based. The settings on record: Homo sapiens, HEK293, HEK293 clonal line overexpressing APOL1 G1; geometric mean of at least 2 runs; † = single run; ¥ = concentration at 50% rescue estimated (no sigmoidal curve). The method, boiled down:
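Rescue of cell death caused by APOL1 G1 overexpression was measured in a clonal HEK293 line. Compounds were tested in duplicate on one plate, and EC50s were geometric means across at least two runs on different days. Some values are estimated 50%-rescue concentrations where curve fitting failed.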

The term EC50 denotes the concentration at which the effect is half-maximal.

SMILES strings stand for the structures.

Regarding `C[C@]1(O)C[C@@H](n2c(=O)ccc3cc(OCCN4CCC5(CC4)C(=O)Nc4ccc(OC(F)F)cc45)cnc32)C1` [Compound 328, 5-(difluoromethoxy)-1′-[2-({7-oxo-8-[(cis)-3-hydroxy-3-methylcyclobutyl]-7,8-dihydro-1,8-naphthyridin-3-yl}oxy)ethyl]-1,2-dihydrospiro[indole-3,4′-piperidin]-2-one], the EC50 is 92.1 nM in experiment [1] and 98.2 nM in experiment [2].
For the molecule `C[C@]1(O)C[C@H](n2ncc3cc(OCCN4CCC5(CC4)C(=O)Nc4ccc(Cl)cc45)cnc32)C1` (single isomer, unassigned) [Compound 408, 5-chloro-1′-[2-({1-[(trans)-3-hydroxy-3-methylcyclobutyl]-1H-pyrazolo[3,4-b]pyridin-5-yl}oxy)ethyl]-1,2-dihydrospiro[indole-3,4′-piperidin]-2-one], the EC50 in experiment [1] is 121 nM; in experiment [2] it was 56 nM.
On to `C[C@]1(O)C[C@@H](N2C(=O)C3(CC3)c3cc(OCCN4CCC5(CC4)C(=O)Nc4ccc(Cl)cc45)cnc32)C1` [Compound 460, 5-chloro-1′-(2-{2′-oxo-1′-[(cis)-3-hydroxy-3-methylcyclobutyl]-1′,2′-dihydrospiro[cyclopropane-1,3′-pyrrolo[2,3-b]pyridin]-5′-yloxy}ethyl)-1,2-dihydrospiro[indole-3,4′-piperidin]-2-one], for which the EC50 was 118 nM in experiment [1] and 97.7 nM in experiment [2].
For `C[C@]1(O)C[C@@H](n2nnc3cc(OCCN4CCC5(CC4)C(=O)Nc4ccc(C#N)cc45)cc(C(F)(F)F)c32)C1` [Compound 435, 2-oxo-1′-[2-({1-[(cis)-3-hydroxy-3-methylcyclobutyl]-7-(trifluoromethyl)-1H-1,2,3-benzotriazol-5-yl}oxy)ethyl]-1,2-dihydrospiro[indole-3,4′-piperidine]-5-carbonitrile], the EC50 was 27.2 nM in experiment [1] and 38.4 nM in experiment [2].
On the same counts, the results for `CS(=O)(=O)c1ccc(OCCN2CCC3(CC2)C(=O)Nc2ccc(Cl)cc23)cc1` [Compound 69, 5-chloro-1′-[2-(4-methanesulfonylphenoxy)ethyl]-1,2-dihydrospiro[indole-3,4′-piperidin]-2-one] are 184 nM and 311 nM.
Taken in the same sequence, the figures for `CC(C)[C@]1(O)C[C@@H](N2C(=O)CCc3cc(OCCN4CCC5(CC4)C(=O)Nc4ccc(Cl)cc45)cnc32)C1` [Compound 317, 5-chloro-1′-[2-({7-oxo-8-[(cis)-3-hydroxy-3-(propan-2-yl)cyclobutyl]-5,6,7,8-tetrahydro-1,8-naphthyridin-3-yl}oxy)ethyl]-1,2-dihydrospiro[indole-3,4′-piperidin]-2-one] were 33.5 nM and 45.6 nM.

The values above are taken from US12344610B2, “APOL1 inhibitors and methods of use” (Maze Therapeutics, Inc., priority 2022, dated 2025).
